What all share (assay): KinomeScan kinase panel, single concentration 10 µM
What all share (type): binding

Assay [1] has as its target T1, KinomeScan kinase panel (Homo sapiens, UniProt P28482).
T1 construct: purchased DiscoveRx (KinomeScan)
The conditions noted are these: ERK2, 10 µM; read-out: score (%).

Assay [2] has as its target T2, KinomeScan kinase panel (Homo sapiens, UniProt Q8IU85).
T2 construct: purchased DiscoveRx (KinomeScan)
The conditions noted are these: CAMK1D, 10 µM; read-out: score (%).

The target in assay [3] is T3, KinomeScan kinase panel (Homo sapiens, UniProt Q6PHR2).
T3 construct: purchased DiscoveRx (KinomeScan)
T3 sequence (Q6PHR2 1-472): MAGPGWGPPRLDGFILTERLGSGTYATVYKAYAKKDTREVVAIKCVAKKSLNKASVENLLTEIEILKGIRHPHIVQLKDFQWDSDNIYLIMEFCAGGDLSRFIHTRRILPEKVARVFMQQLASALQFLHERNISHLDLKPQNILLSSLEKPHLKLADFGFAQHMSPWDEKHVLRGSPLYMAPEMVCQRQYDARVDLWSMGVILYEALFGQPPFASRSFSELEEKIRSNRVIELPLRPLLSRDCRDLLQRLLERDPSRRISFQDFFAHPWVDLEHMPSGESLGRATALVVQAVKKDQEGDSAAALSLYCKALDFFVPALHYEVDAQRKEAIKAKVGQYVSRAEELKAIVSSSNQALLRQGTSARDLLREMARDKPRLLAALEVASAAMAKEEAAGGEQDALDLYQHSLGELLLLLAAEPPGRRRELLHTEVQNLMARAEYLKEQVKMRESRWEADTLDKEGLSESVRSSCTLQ
The note with it: kinase ULK3; 10 µM.

The target in assay [4] is T4, KinomeScan kinase panel (Homo sapiens, UniProt Q16584).
T4 construct: purchased DiscoveRx (KinomeScan)
The conditions noted are these: MLK3, 10 µM.

The target in assay [5] is T5, KinomeScan kinase panel (Homo sapiens, UniProt O75582).
T5 construct: purchased DiscoveRx (KinomeScan)
The note with it: 10 µM, read-out: score (%).

In assay [6] the target is T6, KinomeScan kinase panel (Homo sapiens, UniProt Q12851).
T6 construct: purchased DiscoveRx (KinomeScan)
T6 sequence (Q12851 1-820): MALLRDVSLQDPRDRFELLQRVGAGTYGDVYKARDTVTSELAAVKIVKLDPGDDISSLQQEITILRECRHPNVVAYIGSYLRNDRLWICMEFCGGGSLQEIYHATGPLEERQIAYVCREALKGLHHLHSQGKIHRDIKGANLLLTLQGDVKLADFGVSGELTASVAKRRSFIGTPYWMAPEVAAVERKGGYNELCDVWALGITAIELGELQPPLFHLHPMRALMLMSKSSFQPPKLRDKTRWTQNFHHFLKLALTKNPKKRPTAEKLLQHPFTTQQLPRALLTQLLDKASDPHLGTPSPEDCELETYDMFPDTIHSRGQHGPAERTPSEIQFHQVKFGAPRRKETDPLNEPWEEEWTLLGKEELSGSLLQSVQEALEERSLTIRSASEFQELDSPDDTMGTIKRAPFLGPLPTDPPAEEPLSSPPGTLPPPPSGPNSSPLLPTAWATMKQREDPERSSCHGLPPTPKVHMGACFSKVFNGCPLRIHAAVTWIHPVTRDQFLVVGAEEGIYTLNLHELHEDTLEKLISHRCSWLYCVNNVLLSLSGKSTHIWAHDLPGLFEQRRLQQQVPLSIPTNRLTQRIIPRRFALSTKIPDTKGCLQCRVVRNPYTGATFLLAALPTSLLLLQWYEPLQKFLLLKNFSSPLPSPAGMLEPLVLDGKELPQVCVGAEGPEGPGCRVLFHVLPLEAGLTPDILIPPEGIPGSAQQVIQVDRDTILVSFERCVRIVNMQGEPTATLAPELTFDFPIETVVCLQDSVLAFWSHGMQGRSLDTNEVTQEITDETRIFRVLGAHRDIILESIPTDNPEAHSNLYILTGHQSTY
The note with it: MAP4K2, 10 µM; read-out: score (%).

Assay [7] concerns the target T7, KinomeScan kinase panel (Homo sapiens, UniProt Q8WXR4).
T7 construct: purchased DiscoveRx (KinomeScan)
T7 sequence (Q8WXR4 1-1341): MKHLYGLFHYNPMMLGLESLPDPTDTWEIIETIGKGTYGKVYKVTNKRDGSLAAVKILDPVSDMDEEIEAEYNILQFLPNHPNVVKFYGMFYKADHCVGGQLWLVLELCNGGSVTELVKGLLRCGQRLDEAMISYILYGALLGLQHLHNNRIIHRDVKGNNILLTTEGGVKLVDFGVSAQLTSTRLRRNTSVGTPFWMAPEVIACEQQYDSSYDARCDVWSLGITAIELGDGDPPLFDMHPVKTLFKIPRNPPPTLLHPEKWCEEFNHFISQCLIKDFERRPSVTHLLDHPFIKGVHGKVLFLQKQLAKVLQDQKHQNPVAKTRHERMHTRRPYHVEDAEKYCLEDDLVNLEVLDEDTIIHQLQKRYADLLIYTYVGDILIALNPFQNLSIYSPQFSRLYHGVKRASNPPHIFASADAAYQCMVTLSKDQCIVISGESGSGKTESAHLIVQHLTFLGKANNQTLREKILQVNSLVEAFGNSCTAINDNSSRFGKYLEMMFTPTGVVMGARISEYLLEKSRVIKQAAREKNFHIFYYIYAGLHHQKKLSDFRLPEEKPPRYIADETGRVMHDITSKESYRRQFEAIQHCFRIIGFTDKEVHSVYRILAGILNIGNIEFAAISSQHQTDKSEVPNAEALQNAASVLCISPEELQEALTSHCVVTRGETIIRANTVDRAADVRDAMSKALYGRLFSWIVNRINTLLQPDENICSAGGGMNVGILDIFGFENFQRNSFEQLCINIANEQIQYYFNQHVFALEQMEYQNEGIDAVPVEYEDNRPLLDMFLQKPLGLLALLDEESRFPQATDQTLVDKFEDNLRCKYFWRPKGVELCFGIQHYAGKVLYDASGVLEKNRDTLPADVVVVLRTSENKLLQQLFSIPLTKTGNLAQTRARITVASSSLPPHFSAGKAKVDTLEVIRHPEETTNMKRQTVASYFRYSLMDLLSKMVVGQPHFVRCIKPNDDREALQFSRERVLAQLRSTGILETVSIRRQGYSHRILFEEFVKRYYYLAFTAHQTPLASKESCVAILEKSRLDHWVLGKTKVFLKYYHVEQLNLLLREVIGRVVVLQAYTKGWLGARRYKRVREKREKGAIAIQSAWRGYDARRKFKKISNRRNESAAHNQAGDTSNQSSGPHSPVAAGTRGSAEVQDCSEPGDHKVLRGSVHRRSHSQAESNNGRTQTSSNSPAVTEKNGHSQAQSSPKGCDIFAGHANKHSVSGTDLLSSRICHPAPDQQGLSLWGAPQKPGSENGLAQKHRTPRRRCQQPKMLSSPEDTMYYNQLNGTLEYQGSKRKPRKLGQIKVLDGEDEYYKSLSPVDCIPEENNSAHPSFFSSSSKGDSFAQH
The conditions noted are these: MYO3B, 10 µM; read-out: score (%).

Setting [8] is: kinase RPS6KA5(Kin.Dom.1-N-terminal).
[9] abbreviates: kinase RPS6KA5(Kin.Dom.2-C-terminal).

Read-outs that look alike come from different tables or passages of the source. A value given as a limit tells only on which side of the number the result lay.

T5 sequence (O75582 whole entry): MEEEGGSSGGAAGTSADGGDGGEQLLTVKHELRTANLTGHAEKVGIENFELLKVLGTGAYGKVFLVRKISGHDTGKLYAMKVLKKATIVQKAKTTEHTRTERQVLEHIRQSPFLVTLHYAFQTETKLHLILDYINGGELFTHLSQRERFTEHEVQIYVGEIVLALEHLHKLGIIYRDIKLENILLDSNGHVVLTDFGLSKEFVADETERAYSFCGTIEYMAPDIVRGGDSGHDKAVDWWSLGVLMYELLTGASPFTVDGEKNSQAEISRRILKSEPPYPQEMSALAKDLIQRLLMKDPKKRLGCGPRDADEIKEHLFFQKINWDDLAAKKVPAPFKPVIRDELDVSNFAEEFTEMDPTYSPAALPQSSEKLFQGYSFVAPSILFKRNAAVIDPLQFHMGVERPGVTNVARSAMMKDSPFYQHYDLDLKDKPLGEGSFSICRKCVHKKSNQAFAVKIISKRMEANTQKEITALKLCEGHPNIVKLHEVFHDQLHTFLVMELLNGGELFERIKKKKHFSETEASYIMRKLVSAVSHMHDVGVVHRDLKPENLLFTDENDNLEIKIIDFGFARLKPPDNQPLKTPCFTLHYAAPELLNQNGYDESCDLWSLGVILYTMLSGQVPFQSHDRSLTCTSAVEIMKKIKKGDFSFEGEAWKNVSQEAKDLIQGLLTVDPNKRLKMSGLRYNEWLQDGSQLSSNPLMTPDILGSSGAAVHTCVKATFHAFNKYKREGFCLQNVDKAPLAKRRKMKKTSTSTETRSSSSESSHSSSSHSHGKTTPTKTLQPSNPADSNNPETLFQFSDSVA
T1 sequence (P28482 whole entry): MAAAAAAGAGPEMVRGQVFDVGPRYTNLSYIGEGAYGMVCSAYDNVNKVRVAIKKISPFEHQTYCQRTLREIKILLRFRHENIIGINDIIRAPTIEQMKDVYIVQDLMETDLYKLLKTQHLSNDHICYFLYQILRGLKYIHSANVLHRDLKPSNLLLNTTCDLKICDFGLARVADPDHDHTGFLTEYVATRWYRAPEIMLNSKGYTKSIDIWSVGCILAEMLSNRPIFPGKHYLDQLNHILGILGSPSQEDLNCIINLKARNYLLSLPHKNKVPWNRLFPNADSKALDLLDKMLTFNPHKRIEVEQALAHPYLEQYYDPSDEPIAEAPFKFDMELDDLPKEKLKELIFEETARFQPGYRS
T2 sequence (Q8IU85 whole entry): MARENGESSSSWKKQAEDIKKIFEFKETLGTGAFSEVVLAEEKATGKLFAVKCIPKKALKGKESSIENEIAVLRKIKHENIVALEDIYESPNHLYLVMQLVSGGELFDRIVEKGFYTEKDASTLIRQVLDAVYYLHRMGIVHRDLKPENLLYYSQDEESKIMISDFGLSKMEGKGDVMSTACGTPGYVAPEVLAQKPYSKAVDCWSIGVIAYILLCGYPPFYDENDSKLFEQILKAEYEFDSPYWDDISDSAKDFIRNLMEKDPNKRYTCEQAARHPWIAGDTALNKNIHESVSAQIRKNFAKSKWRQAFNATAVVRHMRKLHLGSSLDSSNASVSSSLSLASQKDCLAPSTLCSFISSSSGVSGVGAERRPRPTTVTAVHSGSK
T4 sequence (Q16584 whole entry): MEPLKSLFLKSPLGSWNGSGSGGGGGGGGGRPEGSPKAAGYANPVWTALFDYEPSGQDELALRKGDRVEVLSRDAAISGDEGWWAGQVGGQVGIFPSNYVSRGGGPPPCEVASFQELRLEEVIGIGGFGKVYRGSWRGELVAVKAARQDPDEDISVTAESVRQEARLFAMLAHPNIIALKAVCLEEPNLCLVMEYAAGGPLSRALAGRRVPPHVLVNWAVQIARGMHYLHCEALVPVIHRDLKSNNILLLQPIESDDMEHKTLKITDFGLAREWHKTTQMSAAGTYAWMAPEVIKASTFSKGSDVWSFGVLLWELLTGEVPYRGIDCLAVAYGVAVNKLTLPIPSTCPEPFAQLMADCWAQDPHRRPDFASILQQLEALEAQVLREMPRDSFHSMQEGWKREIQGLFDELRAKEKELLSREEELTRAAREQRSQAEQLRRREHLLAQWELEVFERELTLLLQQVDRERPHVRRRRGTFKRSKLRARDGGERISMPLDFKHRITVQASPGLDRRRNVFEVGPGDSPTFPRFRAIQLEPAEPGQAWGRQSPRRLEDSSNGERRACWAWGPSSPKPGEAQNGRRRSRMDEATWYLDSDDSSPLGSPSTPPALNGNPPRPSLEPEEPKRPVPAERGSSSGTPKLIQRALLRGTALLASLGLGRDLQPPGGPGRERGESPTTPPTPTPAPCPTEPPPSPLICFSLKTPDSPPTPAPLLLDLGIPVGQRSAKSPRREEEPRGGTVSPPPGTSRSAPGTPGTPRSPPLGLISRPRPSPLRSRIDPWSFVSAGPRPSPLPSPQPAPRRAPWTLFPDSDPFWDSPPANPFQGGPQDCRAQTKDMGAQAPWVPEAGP

Consider `CCN1CCN(Cc2ccc(NC(=O)c3ccc(C)c(NC(=O)c4cncc(-c5cccs5)c4)c3)cc2C(F)(F)F)CC1` [ALW-II-41-27], for which the remaining binding at 10 µM is above 30% at KinomeScan kinase panel [1]; above 30% on KinomeScan kinase panel [2]; 11% at KinomeScan kinase panel [5] (setting [8]); above 30% on KinomeScan kinase panel [5] (setting [9]); 0.6% at KinomeScan kinase panel [6]; above 30% at KinomeScan kinase panel [7]. The “score (%)” value at KinomeScan kinase panel [3] is 0.95%; at KinomeScan kinase panel [4], “nb (Hits values higher than 30% were considered negative (no binding: nb))”.
In the case of `CCN1CCN(Cc2ccc(NC(=O)c3ccc(C)c(/C=C/c4cnc5[nH]ccc5c4Cl)c3)cc2C(F)(F)F)CC1` [HG-6-63-01, (E)-3-(2-(4-chloro-1H-pyrrolo[2,3-b]pyridin-5-yl)vinyl)-N-(4-((4-ethylpiperazin-1-yl)methyl)-3-(trifluoromethyl)phenyl)-4-methylbenzamide], the remaining binding at 10 µM was above 30% on KinomeScan kinase panel [1]; above 30% on KinomeScan kinase panel [2]; above 30% on KinomeScan kinase panel [5] (RPS6KA5(Kin.Dom.1)); above 30% on KinomeScan kinase panel [5] (RPS6KA5(Kin.Dom.2)); 0.25% on KinomeScan kinase panel [6]; 30% at KinomeScan kinase panel [7]. Besides, the “score (%)” value on KinomeScan kinase panel [3] worked out at 23%; at KinomeScan kinase panel [4], 0.8%.
On to `CCN1CCN(Cc2ccc(NC(=O)c3ccc(C)c(C#Cc4cccnc4)c3)cc2C(F)(F)F)CC1` [XMD15-44], for which the remaining binding at 10 µM is above 30% on KinomeScan kinase panel [1]; above 30% at KinomeScan kinase panel [2]; 59% on KinomeScan kinase panel [5] (setting [8]); 100% at KinomeScan kinase panel [5] (setting [9]); 0% at KinomeScan kinase panel [6]; 0% at KinomeScan kinase panel [7]. Also, the “score (%)” value is reported as 0.25% on KinomeScan kinase panel [3] and 17% at KinomeScan kinase panel [4].

The record behind these values is publication PMC4457528, “Identification of Novel Small Molecule Inhibitors of Oncogenic RET Kinase” (PLoS ONE, 2015).
